Laboratory results as given in patent publication US20190031780A1, “COMPOSITIONS AND METHODS FOR TARGETING CANCER STEM CELLS” (Siamab Therapeutics, Inc., priority 2016, published 2019).

B1: S3F: anti-STn IgG2a antibody: mouse 3F1 variable domains (SEQ ID NO: 1, 2) with mouse IgG2a constant domains; full chains SEQ ID NO: 7, 8 (antibody)
heavy: QVQLQQSDAELVKPGASVKISCKASGYTFTDHAIHWVKQKPEQGLDWIGYISPGNGDIKYNEKFKDKVTLTADKSSSTACMHLNSLTSEDSAVYFCKRSLLALDYWGQGTTLTVSSAKTTAPSVYPLAPVCGDTTGSSVTLGCLVKGYFPEPVTLTWNSGSLSSGVHTFPAVLQSDLYTLSSSVTVTSSTWPSQSITCNVAHPASSTKVDKKIEPRGPTIKPCPPCKCPAPNLLGGPSVFIFPPKIKDVLMISLSPIVTCVVVDVSEDDPDVQISWFVNNVEVHTAQTQTHREDYNSTLRVVSALPIQHQDWMSGKEFKCKVNNKDLPAPIERTISKPKGSVRAPQVYVLPPPEEEMTKKQVTLTCMVTDFMPEDIYVEWTNNGKTELNYKNTEPVLDSDGSYFMYSKLRVEKKNWVERNSYSCSVVHEGLHNHHTTKSFSRTPGK
light: DIVMTQSHKFMSTSVGDRVSITCKASQDVGTNIAWYQQKPGRSPKVLIYSASTRHTGVPDRFTGSGSGTDFTLTISNVQSEDLTDYFCQQYSSFPLTFGVGTKLELKRADAAPTVSIFPPSSEQLTSGGASVVCFLNNFYPKDINVKWKIDGSERQNGVLNSWTDQDSKDSTYSMSSTLTLTKDEYERHNSYTCEATHKTSTSPIVKSFNRNEC
B2: SIA101: anti-STn IgG2a antibody: SIA101 variable domains (SEQ ID NO: 3, 4) with mouse IgG2a constant domains (antibody, V domains shown)
VH: QVQLQQSDXELVKPGASVKISCKASGYTFTDHAIHWVKQKPEQGLEWIGYFSPGNDDIKYNEKFRGKATLTADKSSSTAYMQLNSLSSDDSAVYFCKRSLSTPYWGQGTLXTVSA
VL: DIVMTQSPSSLTVTAGEKVTMSCKSSQSLLNRGNHKNYLTWYRQKPGLPPKLLIYWASTRESGVPDRFTGSGSGTDFALTISSVQAEDLAVYYCQNDYTYPYTFGGGTKLEIKR
modifications: not fully specified; mouse IgG2a constant domains; MOD_RES (9)..(9) Any amino acid; MOD_RES (111)..(111) Any amino acid

Tests used:
STn+CD133+ OV90 cells = experiment: Cell viability of OV90 cells by MTT assay, chemotherapeutic vs antibody treatment (Example 6); format: cell-based, human; settings: OV90 cells cultured 72 to 144 hours; normalized to vehicle only control
Method: STn+CD133+ OV90 and CSC sub-fractions were treated with different concentrations of paclitaxel (FIG. 2A), carboplatin (FIG. 2B), paclitaxel and carboplatin (FIG. 2C) or with unconjugated anti-STn antibody S3F (FIG. 2D). OV90 cells were cultured for 72 to 144 hours with the indicated chemotherapeutic drug or antibody concentrations and cell viability was analyzed by MTT assay. All values were normalized to a vehicle only control.

OVCAR4 cells = experiment: Relative frequency of OVCAR4 STn/CD133 subpopulations after chemotherapy treatment (Example 13); format: cell-based, human; settings: vs vehicle
Method: The potential for anti-STn antibodies to target stem cells after treatment of OVCAR4 cells with chemotherapy agents (paclitaxel and/or carboplatin) was evaluated. The relative frequency of the OVCAR4 subpopulations observed following treatment with either vehicle (shaded) or the indicated chemotherapy regimen is shown in FIG. 6.

OVCAR3 cells = experiment: OVCAR3 cell viability by MTT assay, chemotherapeutic vs antibody treatment (Example 15); format: cell-based, human; settings: 72 hours, increasing doses, normalized to vehicle control
Method: The viability of OVCAR3 cells grown in culture was assessed following treatment with carboplatin, paclitaxel, carboplatin and paclitaxel, or S3F (FIG. 7). OVCAR3 cells were cultured for 72 hours with the indicated concentrations of paclitaxel, carboplatin, paclitaxel/carboplatin combination, or S3F. Relative cell viability was determined by measuring cellular metabolic activity using an MTT assay (EMD Millipore, Billerica, Mass.). For each experiment, all values were normalized to the vehicle control.

[1] = test system: STn positive cells in OVCAR3 xenograft tissues; experiment: STn expression in xenograft tissues by flow cytometry at end of OVCAR3 in vivo study (Example 20); set-up: species or system NOD/SCID mice; settings: 5 mg/kg weekly
Method: OVCAR3 cells were injected into NOD/SCID mice to generate tumor xenografts. Once a sufficient number of mice developed tumor volumes ranging from 200-500 mm^3, mice were randomized into 5 groups (about 6-7 mice/group) with essentially equivalent group mean tumor volumes. Each group received weekly treatments according to the following Table.
At the end of the study, xenograft tissues were processed to a single cell suspension and assessed for STn expression by flow cytometry. Around 80% of the cells in tissues from groups 1, 4, and 5 were STn positive, while the cells from group 2 mice were less than 40% STn positive (a reduction of about 50%) and cells from group 3 mice were around 10% STn positive (a reduction of greater than 85%).

ovarian cancer tissue = experiment: Immunohistochemical staining of ovarian cancer tissue sections (Example 9); settings: primary antibody; compared to normal IgG and no primary antibody
Excerpt: Tissue sections from ovarian cancer tissue were subjected to immunohistochemical staining to identify cells expressing STn using S3F antibody as a primary antibody. Bound antibody was detected using a peroxidase-based secondary detection system.

Molecule | cell viability (MTT assay) (STn+CD133+ OV90 cells) | relative frequency of STn-negative subpopulations (STn-/CD133- and STn-/CD133+) (OVCAR4 cells) | relative frequency of STn-positive subpopulations (STn+/CD133- and STn+/CD133+) (OVCAR4 cells) | relative cell viability (metabolic activity, MTT assay) (OVCAR3 cells) | STn positive cells in xenograft tissues [1] | immunohistochemical staining of STn-expressing cells (ovarian cancer tissue)
CC(=O)O[C@H]1C(=O)[C@@]2(C)[C@H]([C@H](OC(=O)c3ccccc3)[C@]3(O)C[C@H](OC(=O)[C@H](O)[C@@H](NC(=O)c4ccccc4)c4ccccc4)C(C)=C1C3(C)C)[C@]1(OC(C)=O)CO[C@@H]1C[C@@H]2O [paclitaxel] | significantly reduced | decrease | increase | decreased cell viability |  | 
N.N.O=C([O-])C1(C(=O)[O-])CCC1.[Pt+2] [carboplatin] | significantly reduced | decrease | increase | decreased cell viability |  | 
B1 | no significant effect |  |  | no loss of viability | Around 80% | Numerous cells showed positive staining
B2 |  |  |  |  | Around 80% | 
